Data as given in patent publication US9663486B2, “Selectively substituted quinoline compounds” (EISAI R&D MANAGEMENT CO., LTD., priority 2013, dated 2017).

Target: T1, Human TLR9 (Homo sapiens, UniProt Q9NR96)
T1 sequence (Q9NR96 26-1032): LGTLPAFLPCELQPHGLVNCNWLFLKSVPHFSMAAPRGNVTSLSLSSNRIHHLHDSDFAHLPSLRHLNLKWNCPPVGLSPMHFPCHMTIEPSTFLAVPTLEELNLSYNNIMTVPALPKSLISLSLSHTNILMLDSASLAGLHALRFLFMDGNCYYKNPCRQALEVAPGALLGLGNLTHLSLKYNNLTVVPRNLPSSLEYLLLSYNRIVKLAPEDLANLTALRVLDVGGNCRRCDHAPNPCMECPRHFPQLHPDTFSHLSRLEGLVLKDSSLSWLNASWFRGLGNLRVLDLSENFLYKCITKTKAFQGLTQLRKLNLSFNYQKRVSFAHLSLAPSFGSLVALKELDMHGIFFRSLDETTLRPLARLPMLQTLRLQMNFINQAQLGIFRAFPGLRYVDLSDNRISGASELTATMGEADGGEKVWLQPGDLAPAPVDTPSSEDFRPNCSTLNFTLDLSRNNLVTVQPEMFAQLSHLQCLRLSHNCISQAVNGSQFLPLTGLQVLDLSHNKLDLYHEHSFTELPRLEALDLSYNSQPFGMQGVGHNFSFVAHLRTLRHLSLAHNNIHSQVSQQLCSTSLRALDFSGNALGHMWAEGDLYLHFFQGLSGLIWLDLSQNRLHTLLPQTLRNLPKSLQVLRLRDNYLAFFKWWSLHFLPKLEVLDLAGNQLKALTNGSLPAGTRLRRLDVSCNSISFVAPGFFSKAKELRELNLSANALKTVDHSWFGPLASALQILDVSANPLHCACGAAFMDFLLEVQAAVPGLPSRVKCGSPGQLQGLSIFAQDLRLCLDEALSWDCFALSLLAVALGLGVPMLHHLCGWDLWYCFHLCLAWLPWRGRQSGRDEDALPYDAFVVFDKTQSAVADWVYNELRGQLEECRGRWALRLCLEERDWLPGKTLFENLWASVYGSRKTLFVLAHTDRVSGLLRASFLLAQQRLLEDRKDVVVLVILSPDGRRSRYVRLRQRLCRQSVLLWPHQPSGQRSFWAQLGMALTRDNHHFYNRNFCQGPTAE
Experiment: HEK-293 NFkB-luciferase reporter assay, CpG-ODN stimulation
Format: cell-based
Set-up: stably and individually express human TLR4, TLR7 or TLR9 full-length ORF cDNAs; expressed in transfected cells; host or cells: HEK-293 (ATCC) with ELAM-1 NF-kappaB luciferase reporter
Conditions: ligand CpG-ODN
Text: HEK-293 cells (ATCC) were engineered to stably express a NF-kappaB transcription factor inducible E-selectin (ELAM-1) luciferase reporter derived from the plasmid pGL3 (Promega) containing base pairs −2241 bp to −254 bp from the promoter of the human E-selectin gene (Accession No. NM_000450). These cells were then subsequently engineered to stably and individually express human TLR4, TLR7 or TLR9 full-length ORF cDNAs. Human TLR4 cDNA (Accession No. NM_138554) was cloned into pcDNA 3.0 expression vector (Invitrogen). TLR4 transfected cells were also engineered to express human MD-2 co-receptor [MD-2 cDNA (Accession No. NM_015364) was cloned into the pEF-BOS vector] and were supplemented with 10 nM soluble CD14 (R&D Systems) in the media to optimize LPS responsiveness. Human TLR9 cDNA (Accession No. NM_017442) was cloned into the pBluescript II KS vector (Agilent). Human TLR7 cDNA (Accession No. NM_016562) was obtained from OriGene. HEK-293 cells stably expressing human TLR8 (Accession No. NM_138636) or mouse TLR7 (Accession No. NM_133211) were purchased from InvivoGen and were then stably transfected with pNiFty2(NF-kappaB)-luciferase reporter plasmid (InvivoGen). Each cell type was plated in Dulbecco's modified Eagle's medium (DMEM) containing 10% fetal bovine serum (FBS) at a density of 2.22×10^5 cells/ml into a 384-well plate and incubated for 2 days at 37° C., 5% CO2. […]

C[C@H]1C[C@@H](N)CN(c2ccc(C#N)c3ncccc23)C1 [ER-888840, 5-((3R,5S)-3-amino-5-methylpiperidin-1-yl)quinoline-8-carbonitrile]
IC50: 8.77 µM
